Several values for one entry are separate records, joined by “and”; a condition that tells them apart may be missing. Equal entries are not always repeated. Toxic doses and inconclusive results are not listed.
System: CD2F1 mice, L1210 leukemia ip, survival T/C
Test: NCI In Vivo Anticancer Drug Screen. Data for tumor model L1210 Leukemia (intraperitoneal) in CD2F1 (CDF1) mice
Conditions: higher = longer survival
Summary of the method: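 Antitumor effect is scored in animals hosting a serially transplanted tumor. Values compare compound-dosed animals against vehicle-only controls as a simple quotient.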

[1] = endpoint: mean survival time, dose: 100.0 mg/kg/injection, schedule: Q04DX003 (ip), vehicle: saline with Tween-80
[2] = endpoint: mean survival time, dose: 200.0 mg/kg/injection, schedule: Q04DX003 (ip), vehicle: saline with Tween-80
[3] = endpoint: mean survival time, dose: 400.0 mg/kg/injection, schedule: Q04DX003 (ip), vehicle: saline with Tween-80

CO[C@]12[C@@H](COC(N)=O)C3=C(C(=O)C(C)=C(NCCCO)C3=O)N1C[C@@H]1[C@H]2N1C (some centres not stated)
T/C (endpoint: mean survival time, dose: 1.5 mg/kg/injection, schedule: Q01DX001 (ip), vehicle: water): 101 % of control | T/C (endpoint: mean survival time, dose: 3.0 mg/kg/injection, schedule: Q01DX001 (ip), vehicle: water): 101 % of control | T/C (endpoint: mean survival time, dose: 6.0 mg/kg/injection, schedule: Q01DX001 (ip), vehicle: water): 102 % of control | T/C (endpoint: mean survival time, dose: 12.0 mg/kg/injection, schedule: Q01DX001 (ip), vehicle: water): 107 % of control | T/C (endpoint: mean survival time, dose: 18.75 mg/kg/injection, schedule: Q01DX001 (ip), vehicle: distilled water + Tween-80): 104 % of control | T/C (endpoint: mean survival time, dose: 24.0 mg/kg/injection, schedule: Q01DX001 (ip), vehicle: water): 101 % of control | T/C (endpoint: mean survival time, dose: 36.0 mg/kg/injection, schedule: Q01DX001 (ip), vehicle: water): 102 % of control | T/C (endpoint: mean survival time, dose: 37.5 mg/kg/injection, schedule: Q01DX001 (ip), vehicle: distilled water + Tween-80): 107 % of control | T/C (endpoint: mean survival time, dose: 75.0 mg/kg/injection, schedule: Q01DX001 (ip), vehicle: distilled water + Tween-80): 107 % of control | T/C (endpoint: mean survival time, dose: 150.0 mg/kg/injection, schedule: Q01DX001 (ip), vehicle: distilled water + Tween-80): 116 % of control

O=C1C(N2CC2)=C(N2CCCC(O)C2)C(=O)C(N2CC2)=C1N1CCCC(O)C1 (configuration not stated)
T/C (endpoint: mean survival time, dose: 2.0 mg/kg/injection, schedule: Q01DX009 (ip), vehicle: saline): 162 % of control and 173 % of control

COc1ccc(CCNC(=O)Cc2cc(OC)c(OC)cc2Br)cc1OC
T/C [1]: 94 % of control | T/C [2]: 100 % of control | T/C [3]: 96 % of control

COC(=O)c1ccoc1
T/C (endpoint: median survival time, dose: 12.5 mg/kg/injection, schedule: Q01DX009 (ip), vehicle: saline): 98 % of control | T/C (endpoint: median survival time, dose: 25.0 mg/kg/injection, schedule: Q01DX009 (ip), vehicle: saline): 100 % of control | T/C (endpoint: median survival time, dose: 50.0 mg/kg/injection, schedule: Q01DX009 (ip), vehicle: saline): 100 % of control | T/C (endpoint: median survival time, dose: 100.0 mg/kg/injection, schedule: Q01DX009 (ip), vehicle: saline): 104 % of control | T/C (endpoint: median survival time, dose: 200.0 mg/kg/injection, schedule: Q01DX009 (ip), vehicle: saline): 105 % of control | T/C (endpoint: median survival time, dose: 400.0 mg/kg/injection, schedule: Q01DX009 (ip), vehicle: saline): 114 % of control

CCOC(=O)C(C)Sc1nn(C2OC(COC(=O)c3ccccc3)C(OC(=O)c3ccccc3)C2OC(=O)c2ccccc2)c(=O)[nH]c1=O (configuration not stated)
T/C (endpoint: mean survival time, dose: 12.5 mg/kg/injection, schedule: Q01DX005 (ip), vehicle: distilled water + Tween-80): 97 % of control | T/C (endpoint: mean survival time, dose: 25.0 mg/kg/injection, schedule: Q01DX005 (ip), vehicle: distilled water + Tween-80): 97 % of control | T/C (endpoint: mean survival time, dose: 50.0 mg/kg/injection, schedule: Q01DX005 (ip), vehicle: distilled water + Tween-80): 95 % of control | T/C (endpoint: mean survival time, dose: 100.0 mg/kg/injection, schedule: Q01DX005 (ip), vehicle: distilled water + Tween-80): 95 % of control | T/C (endpoint: mean survival time, dose: 200.0 mg/kg/injection, schedule: Q01DX005 (ip), vehicle: distilled water + Tween-80): 89 % of control

C/C=C/c1cc2n(c1)C(=O)c1cc(OC3OC(C)C(NC)C(C)(O)C3O)c(C)c(O)c1NC2O (configuration not stated)
T/C (endpoint: mean survival time, dose: 4.0 micrograms/kg/injection, schedule: Q01DX009 (ip), vehicle: saline): 108 % of control | T/C (endpoint: mean survival time, dose: 8.0 micrograms/kg/injection, schedule: Q01DX009 (ip), vehicle: saline): 110 % of control

N#CCCCSc1ccccc1
T/C (endpoint: mean survival time, dose: 100.0 mg/kg/injection, schedule: Q01DX001 (ip), vehicle: saline): 96 % of control | T/C (endpoint: mean survival time, dose: 200.0 mg/kg/injection, schedule: Q01DX001 (ip), vehicle: saline): 106 % of control

CC1(O)CC2C=CC1CC2 (configuration not stated)
T/C [1]: 101 % of control | T/C [2]: 104 % of control | T/C [3]: 95 % of control

O=C1C2C(c3ccccc3)=C(c3ccccc3)C1C1(c3ccccc3)C(c3ccccc3)=CC(=O)C21 (configuration not stated)
T/C (endpoint: mean survival time, dose: 100.0 mg/kg/injection, schedule: Q01DX001 (ip), vehicle: Klucel (hydroxypropylcellulose) (HPC)): 89 % of control | T/C (endpoint: mean survival time, dose: 200.0 mg/kg/injection, schedule: Q01DX001 (ip), vehicle: Klucel (hydroxypropylcellulose) (HPC)): 93 % of control | T/C (endpoint: mean survival time, dose: 400.0 mg/kg/injection, schedule: Q01DX001 (ip), vehicle: Klucel (hydroxypropylcellulose) (HPC)): 93 % of control

O=C(COc1c(Cl)cc(Cl)cc1Cl)Nc1ccc2c(c1)C(=O)c1ccccc1C2=O
T/C (endpoint: mean survival time, dose: 25.0 mg/kg/injection, schedule: Q04DX002 (ip), vehicle: saline with Tween-80): 98 % of control | T/C (endpoint: mean survival time, dose: 50.0 mg/kg/injection, schedule: Q04DX002 (ip), vehicle: saline with Tween-80): 98 % of control | T/C (endpoint: mean survival time, dose: 100.0 mg/kg/injection, schedule: Q04DX002 (ip), vehicle: saline with Tween-80): 94 % of control

O=C1OC(c2ccc(O)cc2)(c2ccc(O)cc2)c2ccccc21
T/C (endpoint: mean survival time, dose: 100.0 mg/kg/injection, schedule: Q01DX009 (ip), vehicle: saline with Tween-80): 95 % of control | T/C [1]: 107 % of control | T/C (endpoint: mean survival time, dose: 200.0 mg/kg/injection, schedule: Q01DX009 (ip), vehicle: saline with Tween-80): 91 % of control | T/C [2]: 94 % of control | T/C (endpoint: mean survival time, dose: 400.0 mg/kg/injection, schedule: Q01DX009 (ip), vehicle: saline with Tween-80): 89 % of control | T/C [3]: 93 % of control

O=C(/C=C/C(=N\Nc1ccccc1)c1ccccc1)c1ccccc1
T/C (endpoint: mean survival time, dose: 100.0 mg/kg/injection, schedule: Q01DX001 (ip), vehicle: saline with Tween-80): 96 % of control | T/C (endpoint: mean survival time, dose: 200.0 mg/kg/injection, schedule: Q01DX001 (ip), vehicle: saline with Tween-80): 94 % of control | T/C (endpoint: mean survival time, dose: 400.0 mg/kg/injection, schedule: Q01DX001 (ip), vehicle: saline with Tween-80): 97 % of control

O=C(Nc1cccc(Cl)c1)Nc1ccccc1Cl
T/C (endpoint: mean survival time, dose: 25.0 mg/kg/injection, schedule: Q04DX003 (ip), vehicle: saline with Tween-80): 93 % of control | T/C (endpoint: mean survival time, dose: 50.0 mg/kg/injection, schedule: Q04DX003 (ip), vehicle: saline with Tween-80): 96 % of control | T/C [1]: 95 % of control | T/C [2]: 89 % of control | T/C [3]: 97 % of control

Source: PubChem BioAssay AID256 (DTP/NCI, 2004)
